How the values were obtained:
Assay type in all cases: in vivo
ICR mice [1] = assay: Arachidonic acid induced ear edema test
ICR mice [2] = assay: Croton oil induced ear edema test
ICR mice [3] = assay: Acetic acid induced writhing test
SD rats = assay: Toxicity test (lethal dose, symptoms, weight, autopsy)
Experimental: The active constituents of honeysuckle stem and sweroside, in the amount of 1.0 g/kg, 1.5 g/kg and 2.0 g/kg, were administered through the tail veins of SD rats (body weight: 120 to 170 g, 5 male and female rats for each administration dose, SLC, Japan), respectively, which had been fasted for 4 hours. […] An autopsy was conducted to identify presence of any abnormalities of organs.
The lethal dose of the active constituents of honeysuckle stem and sweroside was both over 5.0 g/kg for oral administration (no dead rats observed), and over 2.0 g/kg for intravenous injection (no dead rats observed).

Structure (SMILES): C=C[C@H]1[C@H](O[C@@H]2O[C@H](CO)[C@@H](O)[C@H](O)[C@H]2O)OC=C2C(=O)OCC[C@H]21 [Sweroside, sweroside]
- Rate of Inhibition (%) (ICR mice [1]; Table 10, tail vein, 0.1 mg/kg): 48.3%
- Rate of Inhibition (%) (ICR mice [1]; Table 10, tail vein, 1 mg/kg): 55.1%
- Rate of Inhibition (%) (ICR mice [1]; Table 10, tail vein, 10 mg/kg): 69.1%
- Rate of Inhibition (%) (ICR mice [1]; Table 11, oral administration, 1 mg/kg): 29.0%
- Rate of Inhibition (%) (ICR mice [1]; Table 11, oral administration, 10 mg/kg): 34.7%
- Rate of Inhibition (%) (ICR mice [1]; Table 11, oral administration, 100 mg/kg): 45.7%
- Rate of Inhibition (%) (ICR mice [2]; Table 8, tail vein, 0.1 mg/kg): 49.8%
- Rate of Inhibition (%) (ICR mice [2]; Table 8, tail vein, 1 mg/kg): 56.2%
- Rate of Inhibition (%) (ICR mice [2]; Table 8, tail vein, 10 mg/kg): 65.7%
- Rate of Inhibition (%) (ICR mice [2]; Table 9, oral administration, 1 mg/kg): 31.9%
- Rate of Inhibition (%) (ICR mice [2]; Table 9, oral administration, 10 mg/kg): 43.1%
- Rate of Inhibition (%) (ICR mice [2]; Table 9, oral administration, 100 mg/kg): 57.8%
- Rate of Inhibition (%) (ICR mice [3]; Table 12, tail vein, 0.1 mg/kg): 74.6%
- Rate of Inhibition (%) (ICR mice [3]; Table 12, tail vein, 1 mg/kg): 86.4%
- Rate of Inhibition (%) (ICR mice [3]; Table 12, tail vein, 10 mg/kg): 89.7%
- Rate of Inhibition (%) (ICR mice [3]; Table 13, oral administration, 1 mg/kg): 65.9%
- Rate of Inhibition (%) (ICR mice [3]; Table 13, oral administration, 10 mg/kg): 79.1%
- Rate of Inhibition (%) (ICR mice [3]; Table 13, oral administration, 100 mg/kg): 87.9%
- general symptoms (SD rats; 2.0 g/kg intravenously injected, restored soon): increased respiration counts and decreased activity for about 10 minutes
- autopsy result (SD rats; as is the case with the control groups): no abnormalities
- weight change (SD rats; observed for 2 weeks after administration): no change in weight
